Source: patent US6737383B1, “Herbicidal oxadiazolidines” (priority 1999, dated 2004)

Key:
surinam grass = assay: Test B pre/postemergence surinam grass; assay type: in vivo, Brachiaria decumbens
Outline: (§1)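 Response is a visual 0-to-10 score relative to untreated plants, where 0 means no effect and 10 means complete control, taken twelve to sixteen days after application. Treatments went onto soil at planting and onto foliage of 1- to 4-leaf plants, using a surfactant-containing non-phytotoxic solvent.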

corn = assay: Test B pre/postemergence corn; assay type: in vivo, Zea mays
Outline: as §1

smallflower flatsedge = assay: Test B flood test smallflower flatsedge; assay type: in vivo, Cyperus difformis
Outline: (§2)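 Read-out is a visual response score from 0 (no effect) to 10 (complete control), assigned by comparison with untreated controls. Treatment was applied at the 2-leaf stage, and plants stayed in the greenhouse for twelve to sixteen days before scoring.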

blackgrass = assay: Test B pre/postemergence blackgrass; assay type: in vivo, Alopecurus myosuroides
Outline: as §1

rice = assay: Test B flood test rice; assay type: in vivo, Oryza sativa
Outline: as §2

rape = assay: Test B pre/postemergence rape; assay type: in vivo, Brassica napus
Outline: as §1

soybean = assay: Test B pre/postemergence soybean; assay type: in vivo, Glycine max
Outline: as §1

morningglory = assay: Test B pre/postemergence morningglory; assay type: in vivo, Ipomoea hederacea
Outline: as §1

sugar beet = assay: Test B pre/postemergence sugar beet; assay type: in vivo, Beta vulgaris
Outline: as §1

pigweed = assay: Test B pre/postemergence pigweed; assay type: in vivo, Amaranthus retroflexus
Outline: as §1

giant foxtail = assay: Test B pre/postemergence giant foxtail; assay type: in vivo, Setaria faberii
Outline: as §1

bamyardgrass = assay: Test B flood test barnyardgrass; assay type: in vivo, Echinochloa crus-galli
Outline: as §2

duck salad = assay: Test B flood test duck salad; assay type: in vivo, Heteranthera limosa
Outline: as §2

velvetleaf = assay: Test B pre/postemergence velvetleaf; assay type: in vivo, Abutilon theophrasti
Outline: as §1

purple nutsedge = assay: Test B pre/postemergence purple nutsedge; assay type: in vivo, Cyperus rotundus
Outline: as §1

[1] = Postemergence, Rate 500 g/ha, scale of 0 to 10 where 0 is no effect and 10 is complete control
[2] = Preemergence, Rate 62 g/ha, scale of 0 to 10 where 0 is no effect and 10 is complete control
[3] = Preemergence, Rate 125 g/ha, scale of 0 to 10 where 0 is no effect and 10 is complete control
[4] = Preemergence, Rate 250 g/ha, scale 0 to 10, 0 is no effect, 10 is complete control
[5] = Preemergence, Rate 500 g/ha, scale 0 to 10, 0 is no effect, 10 is complete control
[6] = Rate 62 g/ha, Postemergence, scale 0 to 10 (0 no effect, 10 complete control)
[7] = Rate 125 g/ha, Postemergence, scale 0 to 10, 0 is no effect, 10 is complete control
[8] = Postemergence, Rate 250 g/ha, scale 0 to 10
[9] = Rate 62 g/ha, flood test species, Pre-emergence, visual evaluation after twelve to sixteen days
[10] = Rate 125 g/ha, under heading Pre-emergence, flood test species, visual evaluation after twelve to sixteen days
[11] = Rate 250 g/ha, Pre-emergence (flood test species), scale 0 to 10, 0 is no effect, 10 is complete control
[12] = Rate 500 g/ha, Pre-emergence, flood test species, scale 0 to 10 (0 no effect, 10 complete control)

## CC(C)N(C(=O)n1oc(=O)n(CNC(=O)c2ccccc2)c1=O)c1ccc(F)cc1 [Compound 445]
Surinam grass; Postemergence, Rate 250 g/ha, scale 0 to 10, 0 no effect, 10 complete control
  B. signalgrass plant response rating: 0
Surinam grass; [1]
  B. signalgrass plant response rating: 0
Surinam grass; [2]
  Plant response rating, B. signalgrass: 0
Surinam grass; [3]
  Plant response rating, B. signalgrass: 0
Surinam grass; [4]
  B. signalgrass plant response rating: 2
Surinam grass; [5]
  B. signalgrass plant response rating: 3
Surinam grass; [6]
  B. signalgrass plant response rating: 0
Surinam grass; [7]
  B. signalgrass plant response rating: 0
corn; [8]
  Corn plant response rating: 0
corn; [1]
  Corn plant response rating: 0
corn; [2]
  Plant response rating, Corn: 0
corn; [3]
  Plant response rating, Corn: 0
corn; [4]
  Corn plant response rating: 0
corn; [5]
  Corn plant response rating: 0
corn; [6]
  Corn plant response rating: 0
corn; [7]
  Corn plant response rating: 0
Smallflower flatsedge; [9]
  Plant response rating, S. Flatsedge (0 to 10 scale, 0 is no effect, 10 is complete control): 0
Smallflower flatsedge; [10]
  S. Flatsedge plant response rating (0 to 10 scale, 0 is no effect, 10 is complete control): 0
Smallflower flatsedge; [11]
  S. Flatsedge plant response rating: 0
Smallflower flatsedge; [12]
  S. Flatsedge plant response rating: 0
blackgrass; [8]
  Blackgrass plant response rating: 0
blackgrass; [1]
  Blackgrass plant response rating: 0
blackgrass; [2]
  Plant response rating, Blackgrass: 0
blackgrass; [3]
  Plant response rating, Blackgrass: 0
blackgrass; [4]
  Blackgrass plant response rating: 0
blackgrass; [5]
  Blackgrass plant response rating: 1
blackgrass; [6]
  Blackgrass plant response rating: 0
blackgrass; [7]
  Blackgrass plant response rating: 0
rice; [9]
  Plant response rating, Rice (0 to 10 scale, 0 is no effect, 10 is complete control): 0
rice; [10]
  Rice plant response rating (0 to 10 scale, 0 is no effect, 10 is complete control): 0
rice; [11]
  Rice plant response rating: 0
rice; [12]
  Rice plant response rating: 0
rape; [8]
  Rape plant response rating: 2
rape; [1]
  Rape plant response rating: 2
rape; [2]
  Plant response rating, Rape: 0
rape; [3]
  Plant response rating, Rape: 0
rape; [4]
  Rape plant response rating: 0
rape; [5]
  Rape plant response rating: 2
rape; [6]
  Rape plant response rating: 0
rape; [7]
  Rape plant response rating: 0
soybean; [8]
  Soybean plant response rating: 1
soybean; [1]
  Soybean plant response rating: 2
soybean; [2]
  Plant response rating, Soybean: 0
soybean; [3]
  Plant response rating, Soybean: 0
soybean; [5]
  Soybean plant response rating: 0
soybean; [6]
  Soybean plant response rating: 1
soybean; [7]
  Soybean plant response rating: 1
morningglory; [8]
  Morningglory plant response rating: 4
morningglory; [1]
  Morningglory plant response rating: 8
morningglory; [2]
  Plant response rating, Morningglory: 0
morningglory; [3]
  Plant response rating, Morningglory: 0
morningglory; [4]
  Morningglory plant response rating: 0
morningglory; [5]
  Morningglory plant response rating: 0
morningglory; [6]
  Morningglory plant response rating: 3
morningglory; [7]
  Morningglory plant response rating: 4
Sugar beet; [8]
  Sugarbeets plant response rating: 0
Sugar beet; [1]
  Sugarbeets plant response rating: 0
Sugar beet; [2]
  Plant response rating, Sugarbeets: 0
Sugar beet; [3]
  Plant response rating, Sugarbeets: 0
Sugar beet; [4]
  Sugarbeets plant response rating: 0
Sugar beet; [5]
  Sugarbeets plant response rating: 0
Sugar beet; [6]
  Sugarbeets plant response rating: 0
Sugar beet; [7]
  Sugarbeets plant response rating: 0
pigweed; [1]
  Redroot pigweed plant response rating: 4
pigweed; [2]
  Plant response rating, Redroot pigweed: 0
pigweed; [3]
  Plant response rating, Redroot pigweed: 2
pigweed; [4]
  Redroot pigweed plant response rating: 4
pigweed; [5]
  Redroot pigweed plant response rating: 10
pigweed; [6]
  Redroot pigweed plant response rating: 0
pigweed; [7]
  Redroot pigweed plant response rating: 0
Giant foxtail; [8]
  Giant foxtail plant response rating: 1
Giant foxtail; [1]
  Giant foxtail plant response rating: 2
Giant foxtail; [2]
  Plant response rating, Giant foxtail: 0
Giant foxtail; [3]
  Plant response rating, Giant foxtail: 0
Giant foxtail; [4]
  Giant foxtail plant response rating: 5
Giant foxtail; [5]
  Giant foxtail plant response rating: 9
Giant foxtail; [6]
  Giant foxtail plant response rating: 0
Giant foxtail; [7]
  Giant foxtail plant response rating: 0
bamyardgrass; [9]
  Plant response rating, Barnyardgrass (0 to 10 scale, 0 is no effect, 10 is complete control): 0
bamyardgrass; [10]
  Barnyardgrass plant response rating (0 to 10 scale, 0 is no effect, 10 is complete control): 0
bamyardgrass; [11]
  Barnyardgrass plant response rating: 0
bamyardgrass; [12]
  Barnyardgrass plant response rating: 0
Duck salad; [9]
  Plant response rating, Ducksalad (0 to 10 scale, 0 is no effect, 10 is complete control): 0
Duck salad; [10]
  Ducksalad plant response rating (0 to 10 scale, 0 is no effect, 10 is complete control): 0
Duck salad; [11]
  Ducksalad plant response rating: 0
Duck salad; [12]
  Ducksalad plant response rating: 0
velvetleaf; [8]
  Velvetleaf plant response rating: 3
velvetleaf; [1]
  Velvetleaf plant response rating: 5
velvetleaf; [2]
  Plant response rating, Velvetleaf: 0
velvetleaf; [3]
  Plant response rating, Velvetleaf: 0
velvetleaf; [4]
  Velvetleaf plant response rating: 2
velvetleaf; [5]
  Velvetleaf plant response rating: 3
velvetleaf; [6]
  Velvetleaf plant response rating: 0
velvetleaf; [7]
  Velvetleaf plant response rating: 2
Purple nutsedge; [8]
  Nutsedge plant response rating: 0
Purple nutsedge; [1]
  Nutsedge plant response rating: 0
Purple nutsedge; [2]
  Plant response rating, Nutsedge: 0
Purple nutsedge; [3]
  Plant response rating, Nutsedge: 0
Purple nutsedge; [4]
  Nutsedge plant response rating: 0
Purple nutsedge; [5]
  Nutsedge plant response rating: 0
Purple nutsedge; [6]
  Nutsedge plant response rating: 0
Purple nutsedge; [7]
  Nutsedge plant response rating: 0
